Source: article PMC11928584, “H105A peptide eye drops promote photoreceptor survival in murine and human models of retinal degeneration” (Communications Medicine, 2025)
Where a SMILES comes first, the peptide text is derived from it.

System: human iPSC-derived retinal organoids exposed to CSE
Assay: Ethidium homodimer staining of live retinal organoids (3D-ARQ)
Assay type: cell-based
Conditions: D180 ROs, 24 h, mean ± SD, n=14
Procedure: Human iPSCs were differentiated into retinal organoids (ROs) following the protocol by Zhong et al.[41]. Briefly, on Day 0, hiPSC colonies were dissociated with dispase and grown in a suspension to form embryoid bodies, and slowly transitioned to neural induction media (DMEM/F12 (1:1), 1% N2 supplement (Invitrogen), 1 x minimum essential media-nonessential amino acids (NEAAs), 2 µg/ml heparin (Sigma)). On Day 7, EBs were seeded on Matrigel coated plates and maintained in neural induction media. On Day 16, the media was switched to the retinal differentiation medium (DMEM/F12 (3:1), 2% B27 (without vitamin A, Invitrogen), 1x NEAA and 1% antibiotic–antimycotic (Gibco)). Retinal domains were identified and lifted manually with tungsten needles between Day 21 and Day 26 under a phase contrast microscope. On day 30, the culture medium was transitioned to DMEM/F12 (3:1) with 2% B27, 1x NEAA, 1% antibiotic–antimycotic, 10% fetal bovine serum (FBS; Gibco), […] Taurine (Sigma), and 2 mM GlutaMAX (Invitrogen). Additionally, 1 µM retinoic acid supplement was introduced daily starting from day 63. […]
After treatment, ROs were washed in PBS (Gibco, 14190-144) and the auto-fluorescent background was measured by 3D-automated reporter quantification (3D-ARQ)[42], using a Tecan Spark Plate reader (SparkControl v2.3). The Z-position was determined manually by selecting the individual well and fluorescent intensity was measured using the optimized parameters below. […] After incubation, ROs were washed three times with PBS, and fluorescence intensity was measured by 3D-ARQ using the following parameters: Mode: Fluorescent top reading; Wavelength for PSVue-794: Excitation: Emission 730:820 nm, Excitation bandwidth: 10 nm, Emission bandwidth: 15 nm; Wavelength for Ethidium Homodimer: Excitation: Emission 530:630 nm, Excitation bandwidth: 5 nm, Emission bandwidth: 5 nm; Gain: 160, Manual; Number of flashes: 20; integration time: 40 µs; lag time 0 µs. […] Results were analysed after background subtraction; n = 19-24 ROs per condition. […]

## CC[C@H](C)[C@H](NC(=O)[C@H](CC(C)C)NC(=O)[C@H](CC(=O)O)NC(=O)[C@H](Cc1ccc(O)cc1)NC(=O)[C@H](Cc1ccc(O)cc1)NC(=O)[C@H](CC(C)C)NC(=O)[C@H](C)NC(=O)[C@H](CCCNC(=N)N)NC(=O)[C@H](C)NC(=O)[C@@H](NC(=O)[C@@H](NC(=O)[C@H](CO)NC(=O)[C@H](CCC(=O)O)NC(=O)[C@@H](NC(=O)[C@H](CCCNC(=N)N)NC(=O)[C@@H](N)CCC(N)=O)[C@@H](C)O)[C@@H](C)CC)[C@@H](C)CC)C(=O)N[C@@H](CO)C(=O)O [H105A] (H-QRTESIIARALYYDLIS-OH)
CSE 500 µg/ml + peptide 1 nM
  Fluorescence intensity of Ethidium homodimer: 848.9 ± 51.0 RFU
CSE 500 µg/ml + peptide 20 nM
  Fluorescence intensity of Ethidium homodimer: 919.2 ± 46.0 RFU

## CC[C@H](C)[C@H](NC(=O)[C@H](CC(C)C)NC(=O)[C@H](CC(=O)O)NC(=O)[C@H](Cc1ccc(O)cc1)NC(=O)[C@H](Cc1ccc(O)cc1)NC(=O)[C@H](CC(C)C)NC(=O)[C@H](C)NC(=O)[C@H](CCCNC(=N)N)NC(=O)[C@H](Cc1c[nH]cn1)NC(=O)[C@@H](NC(=O)[C@@H](NC(=O)[C@H](CO)NC(=O)[C@H](CCC(=O)O)NC(=O)[C@@H](NC(=O)[C@H](C)NC(=O)[C@@H](N)CCC(N)=O)[C@@H](C)O)[C@@H](C)CC)[C@@H](C)CC)C(=O)N[C@@H](CO)C(=O)O [R99A] (H-QATESIIHRALYYDLIS-OH)
CSE 500 µg/ml + peptide 20 nM
  Fluorescence intensity of Ethidium homodimer: 1283.2 ± 67.6 RFU
